According to US20100190794A1, “Herbicidally Active Composition” (BASF SE, priority 2007, published 2010):

What was measured:
[1] = system: LOLMU; assay: greenhouse test, pre-emergence treatment; type: in vivo, Lolium multiflorum
Text: (§1) The culture containers used were plastic pots containing loamy sand with approximately 3.0% of humus as substrate. The seeds of the test plants were sown separately for each species.
(§2) For the pre-emergence treatment, the active compounds, suspended or emulsified in water, were applied directly after sowing by means of finely distributing nozzles. The containers were irrigated gently to promote germination and growth and subsequently covered with transparent plastic hoods until the plants had rooted. This cover caused uniform germination of the test plants unless this was adversely affected by the active compounds.
(§3) Depending on the species, the plants were kept at 10-25° C. and 20-35° C., respectively. The test period extended over 2 to 4 weeks. During this time, the plants were tended and their response to the individual treatments was evaluated.
(§4) Evaluation was carried out using a scale from 0 to 100. 100 means no emergence of the plants, or complete destruction of at least the above-ground parts, and 0 means no damage or normal course of growth. Good herbicidal activity is given at values of at least 70, and very good herbicidal activity is given at values of at least 85.
(§5) The respective stated components A and B, and if appropriate, C were formulated as a 5% by weight or 10% by weight strength emulsion concentrate or a commercially available formulation of component B was used and, with addition of the amount of solvent system, introduced into the spray liquor used for applying the active compound. In the examples, the solvent used was water.
(§6) The test period extended over 20 or 21 days. During this time, the plants were tended, and their reactions to the treatment with active compound was monitored.
(§7) What was evaluated was the damage by the chemical compositions using a scale of from 0 to 100%, in comparison to the untreated control plants. 0 means no damage, and 100 means complete destruction of the plants.
(§8) In the examples below, using the method of S. R. Colby (1967) “Calculating synergistic and antagonistic responses of herbicide combinations”, Weeds 15, p. 22 ff., the value E, which is expected if the activity of the individual active compounds is only additive, was calculated.
(§9) where X=percent activity using active compound A at an application rate a; Y=percent activity using active compound B at an application rate b; E=expected activity (in %) by A+B at application rates a+b.
(§10) If the value found in experiments is higher than the value E calculated according to Colby, a synergistic effect is present.

[2] = system: PHACA; assay: greenhouse test, pre-emergence treatment; type: in vivo, Phalaris canariensis
Text: as §1, §2, §3, §4, §5, §6, §7, §8, §9, §10

[3] = system: ALOMY; assay: greenhouse test, pre-emergence treatment; type: in vivo, Alopecurus myosuroides
Text: as §1, §2, §3, §4, §5, §6, §7, §8, §9, §10

[4] = system: POAAN; assay: greenhouse test, pre-emergence treatment; type: in vivo, Poa annua; details: 25 g/ha a.s., Use Example 7
Text: as §1, §2, §3, §4, §5, §6, §7, §8, §9, §10

[5] = system: LAMPU; assay: greenhouse test, pre-emergence treatment; type: in vivo, Lamium purpureum; details: 25 g/ha a.s., Use Example 20
Text: as §1, §2, §3, §4, §5, §6, §7, §8, §9, §10

[6] = system: APESV; assay: greenhouse test, pre-emergence treatment; type: in vivo, Apera spica-venti; details: 25 g/ha a.s., Use Example 20
Text: as §1, §2, §3, §4, §5, §6, §7, §8, §9, §10

[7] = system: BRAPL; assay: greenhouse test, pre-emergence treatment; type: in vivo, Brachiaria plantaginea; details: for Herbicidal action in % after 21 days against BRAPL: Use Example 8; for Herbicidal action in % after 20 days against BRAPL: Use Example 16
Text: as §1, §2, §3, §4, §5, §6, §7, §8, §9, §10

[8] = system: CCHEC; assay: greenhouse test, pre-emergence treatment; type: in vivo, Cenchrus echinatus; details: for Herbicidal action in % after 20 days against CCHEC: Use Example 16; for Herbicidal action in % after 21 days against CCHEC: Use Example 3
Text: as §1, §2, §3, §4, §5, §6, §7, §8, §9, §10

[9] = system: SETLU; assay: greenhouse test, pre-emergence treatment; type: in vivo, Setaria glauca; details: Use Example 16
Text: as §1, §2, §3, §4, §5, §6, §7, §8, §9, §10

[10] = system: ALOMY; assay: greenhouse test, post-emergence treatment; type: in vivo, Alopecurus myosuroides; details: Use Example 17
Description: as §1
(§11) For the post-emergence treatment, the test plants were grown to a plant height of from 3 to 15 cm, depending on the plant habit, and only then treated with the active compounds which had been suspended or emulsified in water. To this end, the test plants were either sown directly and grown in the same containers, or they were first grown separately as seedlings and transplanted into the test containers a few days prior to treatment.
as §3, §4, §5, §6, §7, §8, §9, §10

[11] = system: LOLMU; assay: greenhouse test, post-emergence treatment; type: in vivo, Lolium multiflorum; details: Use Example 17
Description: as §1, §11, §3, §4, §5, §6, §7, §8, §9, §10

[12] = system: SETVI; assay: greenhouse test, post-emergence treatment; type: in vivo, Setaria viridis; details: Use Example 17
Description: as §1, §11, §3, §4, §5, §6, §7, §8, §9, §10

[13] = system: PANDI; assay: greenhouse test, pre-emergence treatment; type: in vivo, Panicum dichotomiflorum; details: Use Example 3
Text: as §1, §2, §3
as §4, with “85. […]” for “85.”
as §6
What was evaluated was the damage by the chemical compositions using a scale of from 0 to 100%, in comparison to the untreated control plants. […]
In the examples below, using the method of S. R. Colby (1967) “Calculating synergistic and antagonistic responses of herbicide combinations”, Weeds 15, p. 22 ff., the value E, which is expected if the activity of the individual active compounds is only additive, was calculated. […]
as §10

## CC(C)N(C(=O)SCC(Cl)=C(Cl)Cl)C(C)C [Triallate, reference compound]
[1]; 300 g/ha a.s., Use Example 1
  Herbicidal action in % after 20 days against LOLMU: 60%
[1]; 600 g/ha a.s., Use Example 1
  Herbicidal action in % after 20 days against LOLMU: 80%
[2]; 300 g/ha a.s., Use Example 1
  Herbicidal action in % after 20 days against PHACA: 40%
[2]; 600 g/ha a.s., Use Example 1
  Herbicidal action in % after 20 days against PHACA: 50%

## O=C(Nc1ccc(F)cc1)c1cccc(Oc2cccc(C(F)(F)F)c2)n1 [Picolinafen, reference compound]
[2]; 25 g/ha a.s., Use Example 20
  Herbicidal action in % after 20 days against PHACA: 0%
[3]; 25 g/ha a.s., Use Example 7
  Herbicidal action in % after 20 days against ALOMY: 0%
[4]
  Herbicidal action in % after 20 days against POAAN: 0%
[5]
  Herbicidal action in % after 20 days against LAMPU: 0%
[6]
  Herbicidal action in % after 20 days against APESV: 60%

## CC1(C)CON(Cc2ccccc2Cl)C1=O [Clomazon, Clomazone]
[7]; 50 g/ha a.s.
  Herbicidal action in % after 21 days against BRAPL: 65%
[7]; 100 g/ha a.s.
  Herbicidal action in % after 21 days against BRAPL: 85%

## O=C(O)c1c(Cl)ccc2cc(Cl)cnc12 [Quinclorac]
[8]; 62.5 g/ha a.s.
  Herbicidal action in % after 20 days against CCHEC: 0%
[8]; 125 g/ha a.s.
  Herbicidal action in % after 20 days against CCHEC: 20%
[7]; 62.5 g/ha a.s.
  Herbicidal action in % after 20 days against BRAPL: 0%
[7]; 125 g/ha a.s.
  Herbicidal action in % after 20 days against BRAPL: 25%
[9]; 62.5 g/ha a.s.
  Herbicidal action in % after 20 days against SETLU: 50%
[9]; 125 g/ha a.s.
  Herbicidal action in % after 20 days against SETLU: 85%

## CCC(CC)Nc1c([N+](=O)[O-])cc(C)c(C)c1[N+](=O)[O-] [Pendimethalin, reference compound]
[1]; 250 g/ha a.s., Use Example 10
  Herbicidal action in % after 20 days against LOLMU: 0%
[3]; 250 g/ha a.s., Use Example 10
  Herbicidal action in % after 20 days against ALOMY: 30%
[10]; 500 g/ha a.s.
  Herbicidal action in % after 20 days against ALOMY: 65%
[10]; 1000 g/ha a.s.
  Herbicidal action in % after 20 days against ALOMY: 75%
[11]; 500 g/ha a.s.
  Herbicidal action in % after 20 days against LOLMU: 70%
[11]; 1000 g/ha a.s.
  Herbicidal action in % after 20 days against LOLMU: 75%
[12]; 500 g/ha a.s.
  Herbicidal action in % after 20 days against SETVI: 90%
[12]; 1000 g/ha a.s.
  Herbicidal action in % after 20 days against SETVI: 95%

## CC(C)c1ccc(NC(=O)N(C)C)cc1 [Isoproturon, reference compound]
[2]; 375 g/ha a.s., Use Example 4
  Herbicidal action in % after 20 days against PHACA: 55%
[2]; 750 g/ha a.s., Use Example 4
  Herbicidal action in % after 20 days against PHACA: 75%
[3]; 375 g/ha a.s., Use Example 4
  Herbicidal action in % after 20 days against ALOMY: 90%
[3]; 750 g/ha a.s., Use Example 4
  Herbicidal action in % after 20 days against ALOMY: 98%

## CCc1cnc(C2=NC(C)(C(C)C)C(=O)N2)c(C(=O)O)c1 (stereo not drawn) [Imazethapyr]
[13]; 17.5 g/ha a.s.
  Herbicidal action in % after 21 days against PANDI: 95%
[13]; 35 g/ha a.s.
  Herbicidal action in % after 21 days against PANDI: 95%
[8]; 17.5 g/ha a.s.
  Herbicidal action in % after 21 days against CCHEC: 50%
[8]; 35 g/ha a.s.
  Herbicidal action in % after 21 days against CCHEC: 60%
